According to patent US20080166805A1, “Culturing human cells and tissues in an N-glycolylneuraminic acid-free environment” (The Regents of the University of California, priority 2005, published 2008):

Columns and labels:
chimpanzee lymphoblasts = experiment: Neu5Gc/Neu5Ac feeding experiment, chimpanzee EBV-transformed lymphoblasts; type: cell-based; conditions: chimpanzee lymphoblasts fed 3 mM Neu5Ac for 3 days
Procedure: (§1) Cell Culture—Caco-2 cells were propagated in alpha-MEM containing GLUTAMAX™ (Invitrogen, San Diego, Calif.) and a mixture of ribonucleosides and deoxyribonucleosides (Gibco/Invitrogen, San Diego, Calif.) supplemented with 20% FCS. All the fibroblast cell lines and CHO-K1 cells were cultured in the same media supplemented respectively with 15% non-heat inactivated FCS or 10% heat inactivated FCS. Chimpanzee Fred and human […] EBV-transformed lymphoblasts were cultured in RPMI-1640 (Gibco/Invitrogen, San Diego, Calif.) supplemented with 10% heat inactivated FCS or 15% human serum. All of the cultures were maintained at 37° C., 5% CO2 atmosphere. In order to deplete any remaining Neu5Gc from FCS, the cells were split and cultured prior to Neu5Gc feeding experiments for at least 4 days in alpha-MEM supplemented with an adequate percentage of heat-inactivated premium human serum instead of FCS. The cells were then maintained under the same conditions during the whole feeding experiment. The human serum was heat inactivated at 56° C. for 30 min. before use.
(§2) Neu5Gc and ManNGc Feeding Experiment—Neu5Ac, Neu5Gc or ManNGc were dried, dissolved in the appropriate media supplemented with heat-inactivated human serum, sterilized using a Spin-X® (Corning Inc., Corning, N.Y.) and then added to the cells. The pH of the media containing Sia was adjusted to neutrality using sterilized 1M NaOH before starting the feeding experiment. Cells were cultured in the presence of up to 3 mM free Sia or ManNGc for 1 or 3 days at 37° C. […]
(§3) Fractionation of the Labeled Cells—Washed cell pellets were sonicated into 500 μL of 20 mM sodium phosphate buffer or 20 mM Tris-HCl, pH 7.5, using 4×15 second pulses of a sonicator cell disrupter, model Some Dismembrator (Fisher Scientific, Hampton, N.J.) at a probe setting of 3. […] The pellet contained <5% of the incorporated sialic acid as determined using a radioactive tracer (data not shown.) The supernatant was therefore considered as the “total homogenate” fraction. A portion (20%) of the “total homogenate” fraction was taken for protein quantification and Sia analysis by DMB derivatization and HPLC analysis (as discussed below.) The remainder was centrifuged at 100,000×g for 1 h. […] All the Sias in these fractions were released with mild acid hydrolysis if necessary and then analyzed by HPLC after DMB derivatization. Protein quantification was performed on the total homogenate, membrane and soluble protein fractions by using the BCA protein assay kit from Pierce (Rockford, Ill.) In some experiments, the resulting data obtained for the Sia bound to the membrane fraction and to the soluble proteins were pooled and presented here as a High Molecular Weight (HMW) fraction. […]

Caco-2 cells = experiment: Competition of free Neu5Ac with free Neu5Gc for incorporation into Caco-2 cells; type: cell-based, human
Procedure: Neu5Gc and ManNGc Feeding Experiment—Neu5Ac, Neu5Gc or ManNGc were dried, dissolved in the appropriate media supplemented with heat-inactivated human serum, sterilized using a Spin-X® (Corning Inc., Corning, N.Y.) and then added to the cells. The pH of the media containing Sia was adjusted to neutrality using sterilized 1M NaOH before starting the feeding experiment. Cells were cultured in the presence of up to 3 mM free Sia or ManNGc for 1 or 3 days at 37° C. At the end of the feeding, cells were washed with cold PBS, harvested either by scraping or with 2 mM EDTA for fibroblasts, and washed again with cold PBS prior to fractionation.
Fractionation of the Labeled Cells—Washed cell pellets were sonicated into 500 μL of 20 mM sodium phosphate buffer or 20 mM Tris-HCl, pH 7.5, using 4×15 second pulses of a sonicator cell disrupter, model Some Dismembrator (Fisher Scientific, Hampton, N.J.) at a probe setting of 3. The sonicate was centrifuged at 75×g for 15 min., and the pellet obtained consisted primarily of nuclei and unbroken cells. The pellet contained <5% of the incorporated sialic acid as determined using a radioactive tracer (data not shown.) The supernatant was therefore considered as the “total homogenate” fraction. A portion (20%) of the “total homogenate” fraction was taken for protein quantification and Sia analysis by DMB derivatization and HPLC analysis (as discussed below.) The remainder was centrifuged at 100,000×g for 1 h. The resulting pellet, called the “membrane” fraction, was then resuspended by sonication (15 sec.) in 200 μl of sodium acetate buffer, pH 5.5. The 100,000×g supernatant, called the “soluble” fraction was adjusted to 90% ethanol using absolute ice-cold ethanol, and placed overnight at −20° C. The flocculant precipitate, which represents the “soluble protein” fraction, was washed 3 times with 90% ice-cold ethanol and then resuspended in 200 μl of water. The supernatant fluid representing the cytosolic low molecular weight (LMW) fraction was dried and brought up in 100 μL with water prior to Sia analysis. All the Sias in these fractions were released with mild acid hydrolysis if necessary and then analyzed by HPLC after DMB derivatization. Protein quantification was performed on the total homogenate, membrane and soluble protein fractions by using the BCA protein assay kit from Pierce (Rockford, Ill.) In some experiments, the resulting data obtained for the Sia bound to the membrane fraction and to the soluble proteins were pooled and presented here as a High Molecular Weight (HMW) fraction.
Sialic Acid Release, DMB Derivatization and HPLC Analysis—The bound Sias from the total homogenate, membrane and soluble protein fractions were released using 2M acetic acid hydrolysis, 3 h. at 80° C. The released Sias, or free Sias, contained in the soluble LMW fraction were passed through a Microcon® YM-10 filter (Millipore, Bedford, Mass.) prior to DMB derivatization, which was done according to Hara et al., 1989. DMB-Sia derivatives from the different fractions were then analyzed by HPLC using a C18 column (Microsorb Mv-TM 100 A, Varian, Palo Alto, Calif.) Isocratic elution was achieved using 7% methanol, 8% acetonitrile in water during 50 min. at 0.9 ml/min flow. The eluant was monitored by fluorescence.
Quantification of Sias—For all HPLC chromatograms, the quantification of Sias was done by comparison with known quantities of DMB derivatized Neu5Gc and Neu5Ac used as standards and then reported in terms of pmoles of Sia. For total homogenate, membrane and cytosolic protein fractions, this number was expressed per mg of protein. Due to minor sample-to-sample variations in amounts and recoveries, the data in the Figures is presented as percent of Neu5Gc over total Sias, rather than as absolute amounts.

[1] = tested on: human LB EBV-transformed lymphoblasts; experiment: Neu5Gc/Neu5Ac feeding experiment, human EBV-transformed lymphoblasts; type: cell-based; conditions: human lymphoblasts fed 3 mM Neu5Ac for 3 days
Procedure: as §1, §2, §3

[2] = 3 mM Neu5Gc for 3 days in the presence of 15 mM Neu5Ac

## CC(=O)N[C@H]1[C@H]([C@H](O)[C@H](O)CO)OC(O)(C(=O)O)C[C@@H]1O (stereo partly drawn) [Neu5Ac, N-acetylneuraminic acid]
Chimpanzee lymphoblasts
  change of percentages of Neu5Gc in the different fractions: changed only minimally
Caco-2 cells; 3 mM Neu5Gc for 3 days in the presence of 3 mM Neu5Ac
  Neu5Gc as percent of total Sia, TH: 48%
Caco-2 cells; [2]
  Neu5Gc as percent of total Sia, TH: 35%
  Neu5Gc as percent of total Sia, membrane-bound fraction: almost to zero
Caco-2 cells; 3 mM Neu5Gc for 3 days with 3 mM Neu5Ac
  Neu5Gc as percent of total Sia, membrane-bound fraction: 29.9%
[1]
  Neu5Gc content of the fractions: almost no detectable Neu5Gc
